Measured values: patent US10500388B2 (priority 2005, dated 2019)
Like-named read-outs stand apart in the source and are kept apart here.

How the values were obtained:
S. aureus = assay: MIC of triclosan for inoculum and for colonies growing inside zones or under discs; assay type: cell-based; settings: Staphylococcus aureus
Protocol: (§1) Wound guards (e.g. for protection of catheter or external fixation pin exit sites) in the form of discs of silicone elastomer of 2.5 cm diameter and 3.5 mm thickness were impregnated with either rifampin+clindamycin (A), rifampin+clindamycin+triclosan (B) or triclosan alone (C). The discs were then sterilised by autoclaving, and placed on agar plates seeded with the gram-positive bacteria Staphylococcus aureus. After overnight incubation, inhibition zones were measured and the discs were transferred to a further seeded plate, and this process repeated until no zones were seen. Any bacterial colonies growing inside the inhibition zones or under the discs were tested for minimal inhibitory concentration (MIC) to triclosan and their identities with the original inoculum determined by pulse field gel electrophoresis.

E. coli = assay: as above; assay type: cell-based; settings: Escherichia coli
Protocol: as §1, with “electrophoresis. The results were as follows:” for “electrophoresis.”
The simulation was repeated using plates seeded with the gram-negative bacterium E coli.

E coli = assay type: cell-based, Escherichia coli
From the text: A suitable method is the serial plate transfer test (SPTT) (Bayston R. Grove N, Siegel J, Lawellin D, Barsham S. Prevention of hydrocephalus shunt catheter colonisation in vitro by impregnation with antimicrobials. J Neurol Neurosurg Psychiatr 1989, 52: 605-689) which allows for a portion of an antimicrobial material, typically a catheter segment of approximately 5 mm length, to be placed on the surface of an agar plate seeded with susceptible index bacteria in such a way that the cut ends of the test catheter are not in contact with the eluting surface, by means of a well or other arrangement.
Wound guards (e.g. for protection of catheter or external fixation pin exit sites) in the form of discs of silicone elastomer of 2.5 cm diameter and 3.5 mm thickness were impregnated with either rifampin+clindamycin (A), rifampin+clindamycin+triclosan (B) or triclosan alone (C). […] After overnight incubation, inhibition zones were measured and the discs were transferred to a further seeded plate, and this process repeated until no zones were seen. Any bacterial colonies growing inside the inhibition zones or under the discs were tested for minimal inhibitory concentration (MIC) to triclosan and their identities with the original inoculum determined by pulse field gel electrophoresis. […]

[1] = read-out: MIC of triclosan for resistant mutants

Compound | MIC (S. aureus; [1]) | MIC (S. aureus; S. aureus original inoculum, read-out: MIC of triclosan for inoculum) | MIC (E. coli; read-out: MIC of triclosan for inoculum) | MIC (E. coli; [1]) | Activity against E. coli (E coli)
Oc1cc(Cl)ccc1Oc1ccc(Cl)cc1Cl [Triclosan] | 125 µg/mL | 3.75 µg/mL | 16 µg/mL | 250 µg/mL | 
CO[C@H]1/C=C/O[C@@]2(C)Oc3c(C)c(O)c4c(O)c(c(/C=N/N5CCN(C)CC5)c(O)c4c3C2=O)NC(=O)/C(C)=C\C=C\[C@H](C)[C@H](O)[C@@H](C)[C@@H](O)[C@@H](C)[C@H](OC(C)=O)[C@@H]1C [Rifampin, 2-(4-methyl-1-piperazinyl-iminomethyl)-rifamycin SV] |  |  |  |  | no activity
CCC[C@@H]1C[C@@H](C(=O)N[C@@H]([C@H]2O[C@H](SC)[C@H](O)[C@@H](O)[C@H]2O)[C@H](C)Cl)N(C)C1 [clindamycin] |  |  |  |  | no activity
